Square brackets hold non-standard residues; d marks the D form. Ends that are not written are not given here. miniPeg = miniPEG linker unit; Aun = NCCCCCCCCCCC(=O)O
Key:
[1] = type: binding; details: FIG. 1; 18 hour incubation in 10% BSA+10 mM guanidinium chloride
Excerpt: In this example, illustrated are unexpected beneficial properties of the composition of the invention, including but not limited to, one or more improved biophysical properties. Such one or more unexpected beneficial properties of a composition of the invention may comprise an increase in stability. An increase in stability may comprise any one or more of resistance to chemical denaturation, resistance to proteolytic degradation, improved retention to a substrate (e.g., resistance to being competed off a substrate to which it is bound, such as by proteins or other biomolecules found in body tissues). Thus, to ascertain a beneficial property of a composition of the invention, it is compared to the properties of a component of the composition-namely, a substrate-binding peptide by itself (e.g., without fatty acid covalently coupled thereto). An assay was developed that, from our direct comparisons (see, e.g., discussion of FIG. 2 below, and Example 7 herein), mimicked the effect of incubation of substrate-binding peptide with human plasma on stability of binding of a substrate-binding peptide to its substrate. The assay utilized incubations in the presence of 10% bovine serum album (BSA) with 10 mM guanidinium chloride. The high BSA concentration mimics the elevated albumin content of human plasma, and the guanidinium chloride is used to compete with any charged interactions involved in binding of the substrate-binding peptide to its substrate.
In this assay, two immunoassay plates were prepared for a “side-by-side” comparison of binding of a test sample (substrate-binding peptide or composition of the invention) to its substrate with or without the presence of 10% BSA with 10 mM guanidinium chloride. The wells of each 96-well polypropylene plate were incubated with 350 μl BSA 1% in PBS for 30 minutes at 20° C. with 500 rpm shaking. To each well was added one acetone-cleaned 3/32″ 316LVM stainless steel bead, followed by addition of dilutions in PBS of the test sample in a range of concentrations starting from 10 μM. Final volume in each well was 200 μl. The plates were incubated for 1 hour at 20° C. with 500 rpm shaking to allow for the binding to occur. The beads were washed 3 times with 250 μl PBS using a plate washer. […]
In the immunoassay for detecting binding without the presence of 10% BSA with 10 mM guanidinium chloride, added to each well was 200 μl of streptavidin AP (AP is alkaline phosphatase) at 1/200 in TBS+1% BSA. […] When color has developed, each well was read at OD405 nm in endpoint mode using a plate reader. […] When color has developed, the wells were read at OD405 nm in endpoint mode using a plate reader. […]

[2] = Critical micelle concentration (CMC) assay with methyl orange; type: physicochemical; details: pH 7 PBS, A484
Description: Formation of a composition of the invention, and evidence of macromolecular network formation, may be monitored or quantified by any means known in the art. In this example, macromolecular formation was detected using a standard assay for determining critical micelle concentration (“CMC”). In this assay, a solution containing the composition of the invention (in a range of concentrations in pH 7 phosphate buffered saline (“PBS”)) was mixed with a solution of methyl orange (0.04 mM in PBS), and the absorbance of the mixture was measured at 484 nm (A484). CMC is the concentration at which a sharp decrease in absorbance at A484 is observed, a change in the optical properties of methyl orange when trapped in a hydrophobic phase, such as caused by self-association as a macromolecular network (Table 7, “CMC”). Also included in this assay were an assay control peptide having an amino acid sequence of SEQ ID NO:122 (Table 7, “Control”), and compound 119 (a PEGylated peptide, the peptide having an amino acid sequence of SEQ ID NO:122, as described in more detail in Example 6 herein).

[3] = Vancomycin loading onto titanium bead, HPLC of HCl eluate; type: binding; details: components mixed with vancomycin, 30 mins at 20° C., washed three times
Description: The experimental procedure used for the embodiments described above was as follows. […] All three components were mixed and then applied to the metal bead. […] All three components were mixed and then applied to the metal bead. […] The mixtures were applied to the metal beads and incubated for 30 mins at 20° C. with 700 rpm shaking. The beads were washed three times with 350ul PBS. Beads were analyzed as follows: 200 ul of 100 mM HCl was added to each bead and incubated for 30 mins at 20° C. with 1,000 rpm shaking. The eluate from each bead was analyzed by HPLC using Phenomenex Luna 3 um column, 50×4.60 mm. Output was compared to a standard curve for vancomycin to determine the amount of vancomycin retained onto the metal bead.

[4] = Stent flow model (in vitro model for in vivo stability on a stent); type: binding; details: radiolabelled
Description: In this example, an in vitro model for in vivo stability on a medical device comprising a stent was performed. The stent flow model included a “circulatory system” comprising a peristaltic pump and clear silicone tubing into which is placed a stent (8 mm, stainless steel) coated with a composition according to the invention. Coating of the stents was accomplished by incubating the stents with radiolabelled composition 132 (specific activity 2,400 cpm/pmole at 20 μM in PBS) for 1 hour at 20° C., followed by extensive washing with buffer. […] In another variation of the stent flow model, 10% BSA+10 mM guanidinium chloride was circulated through the circulatory system at a flow rate of 5 ml/min for 18 hours at 37° C. After circulation in the respective variations of the stent flow model, the coated stents were then counted for radioactivity. To serve as an assay “control”, some coated stents were not placed in the stent flow model, but rather counted for radioactive counts to provide a reference from which percent retention could be calculated for those coated stents included in the stent flow model.

120: amino acid sequence YWAWAYAW (SEQ ID NO:129) covalently coupled to a peptide having the amino acid sequence of SEQ ID NO:122 (YWAWAYAWSSHRTNHKKNNPKKKNKTRGSSGK) [Compound 120, reference compound]
retention of binding of substrate-binding peptide component to its substrate, compared to substrate-binding peptide alone (SEQ ID NO: 122) [1]: failed to promote retention

AUD-AUD-AUD-AUD-AUD-AUD-SEQ ID NO: 122 ([Aun][Aun][Aun][Aun][Aun][Aun]SSHRTNHKKNNPKKKNKTRGSSGK) [Compound 130]
CMC [2]: 0.041 µM

SSSCLIDMYGVCHNFDGAYDSSRG-miniPeg-miniPeg-SSHRTNHKKNNPKKKNKTRGSSGK (SSSCLIDMYGVCHNFDGAYDSSRG[miniPeg][miniPeg]SSHRTNHKKNNPKKKNKTRGSSGK; cysteine pairing not given here) [SEQ ID NO: 163]
Vancomycin Load [3]: 54 pmol/cm2

AUD-AUD-K-AUD-AUD-AUD-AUD-SEQ ID NO: 122 ([Aun][Aun]K[Aun][Aun][Aun][Aun]SSHRTNHKKNNPKKKNKTRGSSGK) [Compound 123]
retention of binding of substrate-binding peptide component to its substrate, compared to substrate-binding peptide alone (SEQ ID NO: 122) [1]: significantly improved retention

AUD-AUD-AUD-AUD-SEQ ID NO: 122 ([Aun][Aun][Aun][Aun]SSHRTNHKKNNPKKKNKTRGSSGK) [Compound 122]
retention of binding of substrate-binding peptide component to its substrate, compared to substrate-binding peptide alone (SEQ ID NO: 122) [1]: significantly improved retention

MA-Ahx-SSCLIDIYGVCHN FDAY-miniPeg-miniPeg-HKKNNPKKKNKTRGSSK(Biotin) [SEQ ID NO: 164]
Vancomycin Load [3]: 278 pmol/cm2

Ac-Y-AUD-AUD-AUD-AUD-AUD-AUD-SEQ ID NO: 122 (Ac-Y[Aun][Aun][Aun][Aun][Aun][Aun]SSHRTNHKKNNPKKKNKTRGSSGK) [Compound 132]
composition remained bound to the coated stents ([4]; 10% BSA+10 mM guanidinium chloride circulated at 5 ml/min for 18 hours at 37° C.): over 90% | composition remained bound to the coated stents ([4]; human plasma circulated at 5 ml/min for 7 days at 37° C.): over 90%

119: Fmoc-NH-(PEG)27-CO2H covalently coupled to a peptide having the amino acid sequence of SEQ ID NO:122 (PEGylated peptide) (SSHRTNHKKNNPKKKNKTRGSSGK; not fully specified (N-terminus); also: Fmoc-NH-(PEG)27-CO2H covalently coupled, site not given here) [Compound 119, reference compound]
retention of binding of substrate-binding peptide component to its substrate, compared to substrate-binding peptide alone (SEQ ID NO: 122) [1]: failed to promote retention

— patent US7972615B2, “Peptide compositions for coating metal medical devices with vancomycin” (Affinergy, Inc., priority 2008, dated 2011)
